Assay results reported in the supplement of paper PMC11997997.

Experiments:
[1] = tested on: murine bone marrow-derived macrophages; experiment: area under cytotoxicity dose-response curve (AUC (% cytotoxicity x dose, relative)); higher = more cytotoxic; settings: duration: 6 days; dose range: 0.13-80 uM, 8 points
Summary of the method: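 Cytotoxicity is expressed as the area under the dose–response curve from GraphPad Prism version 10. To obtain it, primary murine bone marrow-derived macrophages were incubated for 6 days at 37 °C in 5% CO2 across final concentrations of 80–0.13 μM. Viability came from CellTiter-Glo luminescence, and percent cytotoxicity was normalised to vehicle and positive control wells.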

[2] = tested on: Mycobacterium tuberculosis CDC1551 (intracellular, in murine BMDM); experiment: area under intracellular growth-inhibition dose-response curve (AUC (% inhibition x dose, relative)); higher = more potent; settings: duration: 6 days; dose range: 0.13-80 uM, 8 points
Summary of the method: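 In 384-well opaque plates, primary murine bone marrow-derived macrophages were infected with luciferase-expressing M. tuberculosis CDC1551 (multiplicity of infection 1, 1 h) 24 h after seeding, then treated for 6 days across final concentrations of 80–0.13 μM. Growth was measured by Bright-Glo luciferin assay, normalised to a reference drug control and the lowest-concentration wells. The reported value is the area under the growth-inhibition dose–response curve from GraphPad Prism.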

SMILES | area under cytotoxicity dose-response curve [1] | area under intracellular growth-inhibition dose-response curve [2]
CCC(C)c1ccc(NC(=S)Nc2ccc(OC)cc2)cc1 (centres undefined) | 46.7 | 201
Cc1ccc(S(=O)(=O)N2CCN(C(=O)c3cc(S(=O)(=O)N4CCOCC4)c(Cl)cc3Cl)CC2)cc1 | 21.2 | 75.1
Cc1c(C(=O)N(C)C)sc(NC(=O)c2cccc([N+](=O)[O-])c2)c1C#N | 51.5 | 13.8
Cc1ccc(C(=O)c2oc3ccc(Cl)cc3c2NC(=O)CN2CCN(C)CC2)cc1 | 69.1 | 131
CCSc1nnc(NC(=O)[C@H](C)N2C(=O)C3CC=CCC3C2=O)s1 (some centres undefined) | < 0 | 129
COc1cc(CNC23CC4CC(CC(C4)C2)C3)ccc1OCc1ccccc1.Cl | 89.1 | 143
CCOc1ccc(NC(=O)CCc2nnc3ccc(N4CCC(C)CC4)nn23)cc1 | 65.6 | 30.4
CC1CCc2c(nc3sc4c(c3c2N)CCCC4)C1 (centres undefined) | 60.7 | 206
NS(=O)(=O)c1cccc(NC(=O)COC(=O)c2ccc(S(=O)(=O)N3CCOCC3)cc2)c1 | 10 | 112
CCOC(=O)/C=C/C(=O)NNC(=O)c1ccccc1Cl | 186 | 49.3
NC(=S)N/N=C/c1ccc(-c2cc(Cl)cc(Cl)c2)o1 | 41.6 | 230
CC(=O)Nc1sc(N/N=C\c2ccc(O)cc2)nc1-c1cccs1 | 155 | 194
O=C(NCc1ccccc1)C1COc2ccccc2O1 (centres undefined) | 14.8 | 193
CCCCN1CC(COc2ccccc2)OC1=O (centres undefined) | < 0 | 195
Nc1c2c(nc3sc4c(c13)CCCC4)CCCC2 | 77.7 | 125
O=C(NCCc1ccncc1)Nc1cccc(Cl)c1 | 79.9 | 11.9
COc1cc(OC)c(/C=N/NC(=O)c2ccncc2)c(OC)c1 | 60.6 | 272
NC(=S)N/N=C/c1ccc(C(F)(F)F)cc1 | 19.4 | 260
Cc1ccc(CNC(=O)c2ccc(Br)o2)cc1 | < 0 | 267
Cc1ccc(-c2nnc(C)c(N3CCCC3)n2)cc1 | 92.9 | 101
CC(C)c1ccc(NC(=O)NC2CCCCC2)cc1 | 66.5 | 185
CC1CCN(C(=O)c2ccc(CNc3c(N4CCCC4)c(=O)c3=O)cc2)CC1 | 78.3 | 166
Cc1nc(N/N=C\c2ccc3c(c2)OCO3)sc1C | 150 | 252
O=C(COc1ccc(Cl)cc1)N1CCCC1 | 64 | 213
CC(C)[C@H](CN1CCC[C@H]1CN1C(N)=NC[C@@H]1Cc1ccccc1)N1C[C@@H](Cc2ccccc2)N(CCc2ccc(Cl)c(Cl)c2)C1=N | 52.7 | 211
COC(=O)C(C)NC(=S)N1CCN(c2c(F)cc3c(=O)c(C(=O)O)cn(C4CC4)c3c2OC)CC1C (centres undefined) | 23.4 | 90
COc1ccc(NC(=O)/C(Cl)=C(/Cl)S(=O)Cc2ccccc2Cl)cn1 (centres undefined) | 140 | < 0
